Test system: A375 multi-cell spheroids with HUVEC/MSC, viability
Assay: Anticancer human tumor A375 cell line growth inhibition [GQUAD];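 also: spheroids exposed to compounds for seven days before readout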
Settings: for IC50: curve of first compound; for viability, T/C: stronger effect = lower value
Outline: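 Multi-cell-type spheroids of tumor cells with HUVEC and mesenchymal stem cells, treated with drug combinations. Concentrations descend in half-log steps from near clinical Cmax, or from 10 microM where Cmax is unknown; viability read-out.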

[1] = second compound 0.0316 µM, first compound 0.0316 µM
[2] = second compound 0.0316 µM, first compound 0.1 µM
[3] = second compound 0.0316 µM, first compound 0.316 µM
[4] = second compound 0.0316 µM, first compound 1 µM
[5] = second compound 0.0316 µM, first compound 3.16 µM
[6] = second compound 0.0316 µM, first compound 10 µM
[7] = second compound 0.1 µM, first compound 0.0316 µM
[8] = second compound 0.1 µM, first compound 0.1 µM
[9] = second compound 0.1 µM, first compound 0.316 µM
[10] = second compound 0.1 µM, first compound 1 µM
[11] = second compound 0.1 µM, first compound 3.16 µM
[12] = second compound 0.1 µM, first compound 10 µM
[13] = second compound 0.316 µM, first compound 0.0316 µM
[14] = second compound 0.316 µM, first compound 0.1 µM
[15] = second compound 0.316 µM, first compound 0.316 µM
[16] = second compound 0.316 µM, first compound 1 µM
[17] = second compound 0.316 µM, first compound 3.16 µM
[18] = second compound 0.316 µM, first compound 10 µM
[19] = second compound 1 µM, first compound 0.0316 µM
[20] = second compound 1 µM, first compound 0.1 µM
[21] = second compound 1 µM, first compound 0.316 µM
[22] = second compound 1 µM, first compound 1 µM
[23] = second compound 1 µM, first compound 3.16 µM
[24] = second compound 1 µM, first compound 10 µM
[25] = second compound 3.16 µM, first compound 0.0316 µM
[26] = second compound 3.16 µM, first compound 0.1 µM
[27] = second compound 3.16 µM, first compound 0.316 µM
[28] = second compound 3.16 µM, first compound 1 µM
[29] = second compound 3.16 µM, first compound 3.16 µM
[30] = second compound 3.16 µM, first compound 10 µM
[31] = second compound 10 µM, first compound 0.0316 µM
[32] = second compound 10 µM, first compound 0.1 µM
[33] = second compound 10 µM, first compound 0.316 µM
[34] = second compound 10 µM, first compound 1 µM
[35] = second compound 10 µM, first compound 3.16 µM
[36] = second compound 10 µM, first compound 10 µM

Q: What does the source list for `O=C(NO)c1cnc(N2CCN(S(=O)(=O)c3ccc4ccccc4c3)CC2)nc1` + CN(C)c1ccc(Nc2c3ccc(NC(=O)CCN4CCCC4)cc3nc3cc(NC(=O)CCN4CCCC4)ccc23)cc1?
A: IC50 (second compound 0.0316 µM): 188 nM; IC50 (second compound 0.1 µM): 191 nM; IC50 (second compound 0.316 µM): 186 nM; IC50 (second compound 1 µM): 190 nM; IC50 (second compound 3.16 µM): 189 nM; IC50 (second compound 10 µM): 189 nM; viability, T/C [1]: 121%; viability, T/C [2]: 105%; viability, T/C [3]: 4.84%; viability, T/C [4]: 0.29%; viability, T/C [5]: 0.27%; viability, T/C [6]: 0.29%; viability, T/C [7]: 107%; viability, T/C [8]: 108%; viability, T/C [9]: 5.35%; viability, T/C [10]: 0.26%; viability, T/C [11]: 0.22%; viability, T/C [12]: 0.25%; viability, T/C [13]: 108%; viability, T/C [14]: 103%; viability, T/C [15]: 4.36%; viability, T/C [16]: 0.25%; viability, T/C [17]: 0.21%; viability, T/C [18]: 0.23%; viability, T/C [19]: 104%; viability, T/C [20]: 110%; viability, T/C [21]: 5.11%; viability, T/C [22]: 0.26%; viability, T/C [23]: 0.2%; viability, T/C [24]: 0.22%; viability, T/C [25]: 103%; viability, T/C [26]: 110%; viability, T/C [27]: 4.25%; viability, T/C [28]: 0.25%; viability, T/C [29]: 0.22%; viability, T/C [30]: 0.24%; viability, T/C [31]: 102%; viability, T/C [32]: 107%; viability, T/C [33]: 6.02%; viability, T/C [34]: 0.26%; viability, T/C [35]: 0.93%; viability, T/C [36]: 0.25%

Q: How did the IC50 (second compound 0.0316 µM) turn out when `C#Cc1c(F)ccc2cc(O)cc(-c3ncc4c(N5CC6CCC(C5)N6)nc(OCC56CCCN5CC(F)C6)nc4c3F)c12` (stereo not drawn) + CN(C)c1ccc(Nc2c3ccc(NC(=O)CCN4CCCC4)cc3nc3cc(NC(=O)CCN4CCCC4)ccc23)cc1 was run?
A: > 10000 nM

Q: What about the IC50 (second compound 0.1 µM) of the same compound?
A: > 10000 nM

Q: And the IC50 (second compound 0.316 µM)?
A: > 10000 nM

Q: What about the IC50 (second compound 1 µM) of the same compound?
A: > 10000 nM

Q: And the IC50 (second compound 3.16 µM)?
A: > 10000 nM

Q: What about the IC50 (second compound 10 µM) of the same compound?
A: > 10000 nM

Q: What about the viability, T/C [1] of the same compound?
A: 111%

Q: What about the viability, T/C [2] of the same compound?
A: 98.5%

Q: What about the viability, T/C [3] of the same compound?
A: 101%

Q: What about the viability, T/C [4] of the same compound?
A: 108%

Q: What about the viability, T/C [5] of the same compound?
A: 106%

Q: And the viability, T/C [6]?
A: 112%

Q: And the viability, T/C [7]?
A: 104%

Q: What about the viability, T/C [8] of the same compound?
A: 103%

Q: And the viability, T/C [9]?
A: 105%

Q: What about the viability, T/C [10] of the same compound?
A: 108%

Q: And the viability, T/C [11]?
A: 107%

Q: And the viability, T/C [12]?
A: 107%

Q: What about the viability, T/C [13] of the same compound?
A: 99.5%

Q: What about the viability, T/C [14] of the same compound?
A: 98.4%

Q: What about the viability, T/C [15] of the same compound?
A: 99.3%

Q: What about the viability, T/C [16] of the same compound?
A: 109%

Q: And the viability, T/C [17]?
A: 102%

Q: What about the viability, T/C [18] of the same compound?
A: 98.6%

Q: And the viability, T/C [19]?
A: 106%

Q: What about the viability, T/C [20] of the same compound?
A: 98%

Q: And the viability, T/C [21]?
A: 99.4%

Q: And the viability, T/C [22]?
A: 109%

Q: What about the viability, T/C [23] of the same compound?
A: 107%

Q: And the viability, T/C [24]?
A: 98.1%

Q: What about the viability, T/C [25] of the same compound?
A: 103%

Q: What about the viability, T/C [26] of the same compound?
A: 98.7%

Q: What about the viability, T/C [27] of the same compound?
A: 104%

Q: And the viability, T/C [28]?
A: 97.2%

Q: And the viability, T/C [29]?
A: 102%

Q: What about the viability, T/C [30] of the same compound?
A: 103%

Q: And the viability, T/C [31]?
A: 96.6%

Q: And the viability, T/C [32]?
A: 102%

Q: And the viability, T/C [33]?
A: 96.2%

Q: What about the viability, T/C [34] of the same compound?
A: 96.3%

Q: What about the viability, T/C [35] of the same compound?
A: 102%

Q: What about the viability, T/C [36] of the same compound?
A: 102%

Q: What does the source list for `Cc1cccc(N(C)C(=O)C2C(O)CCN2c2nc(C)cc(C(F)(F)F)c2C#N)c1` (stereo not drawn) + Cc1cnc(CNC(=O)c2c(=O)c3ccc(N4CCCN(C)CC4)nc3n3c2sc2ccccc23)cn1?
A: IC50 (second compound 0.0316 µM): > 10000 nM; IC50 (second compound 0.1 µM): > 10000 nM; IC50 (second compound 0.316 µM): > 10000 nM; IC50 (second compound 1 µM): < 31.6 nM; IC50 (second compound 3.16 µM): < 31.6 nM; IC50 (second compound 10 µM): < 31.6 nM; viability, T/C [1]: 104%; viability, T/C [2]: 89.9%; viability, T/C [3]: 104%; viability, T/C [4]: 107%; viability, T/C [5]: 99.3%; viability, T/C [6]: 122%; viability, T/C [7]: 75.8%; viability, T/C [8]: 69.7%; viability, T/C [9]: 77.2%; viability, T/C [10]: 76%; viability, T/C [11]: 78.8%; viability, T/C [12]: 71.8%; viability, T/C [13]: 55.6%; viability, T/C [14]: 52%; viability, T/C [15]: 50.4%; viability, T/C [16]: 52.2%; viability, T/C [17]: 63.3%; viability, T/C [18]: 60.9%; viability, T/C [19]: 42.9%; viability, T/C [20]: 41.6%; viability, T/C [21]: 42.8%; viability, T/C [22]: 41.8%; viability, T/C [23]: 49.2%; viability, T/C [24]: 38.4%; viability, T/C [25]: 30.5%; viability, T/C [26]: 31.4%; viability, T/C [27]: 41%; viability, T/C [28]: 31.8%; viability, T/C [29]: 35.6%; viability, T/C [30]: 38.4%; viability, T/C [31]: 31.8%; viability, T/C [32]: 29.8%; viability, T/C [33]: 33.9%; viability, T/C [34]: 33.1%; viability, T/C [35]: 35.4%; viability, T/C [36]: 32.1%

Q: `COc1cc(C2c3cc4c(cc3C(OC3OC5COC(C)OC5C(O)C3O)C3COC(=O)C23)OCO4)cc(OC)c1O` (stereo not drawn) + Cc1cnc(CNC(=O)c2c(=O)c3ccc(N4CCCN(C)CC4)nc3n3c2sc2ccccc23)cn1 was tested. Which IC50 (second compound 0.0316 µM) did it give?
A: 656 nM

Q: And the IC50 (second compound 0.1 µM)?
A: 213 nM

Q: What about the IC50 (second compound 0.316 µM) of the same compound?
A: < 31.6 nM

Q: And the IC50 (second compound 1 µM)?
A: < 31.6 nM

Q: And the IC50 (second compound 3.16 µM)?
A: < 31.6 nM

Q: What about the IC50 (second compound 10 µM) of the same compound?
A: < 31.6 nM

Q: And the viability, T/C [1]?
A: 110%

Q: And the viability, T/C [2]?
A: 90.6%

Q: And the viability, T/C [3]?
A: 65.6%

Q: What about the viability, T/C [4] of the same compound?
A: 40.7%

Q: And the viability, T/C [5]?
A: 27.4%

Q: What about the viability, T/C [6] of the same compound?
A: 20.2%

Q: What about the viability, T/C [7] of the same compound?
A: 73.6%

Q: And the viability, T/C [8]?
A: 59.8%

Q: What about the viability, T/C [9] of the same compound?
A: 43.6%

Q: And the viability, T/C [10]?
A: 33.5%

Q: What about the viability, T/C [11] of the same compound?
A: 25.8%

Q: What about the viability, T/C [12] of the same compound?
A: 14.7%

Q: What about the viability, T/C [13] of the same compound?
A: 48.3%

Q: What about the viability, T/C [14] of the same compound?
A: 50.2%

Q: What about the viability, T/C [15] of the same compound?
A: 37.8%

Q: What about the viability, T/C [16] of the same compound?
A: 32.4%

Q: What about the viability, T/C [17] of the same compound?
A: 22.1%

Q: And the viability, T/C [18]?
A: 14.3%

Q: And the viability, T/C [19]?
A: 40.1%

Q: What about the viability, T/C [20] of the same compound?
A: 38.6%

Q: What about the viability, T/C [21] of the same compound?
A: 30.6%

Q: What about the viability, T/C [22] of the same compound?
A: 30.7%

Q: And the viability, T/C [23]?
A: 22.3%

Q: And the viability, T/C [24]?
A: 15.3%

Q: And the viability, T/C [25]?
A: 34%

Q: And the viability, T/C [26]?
A: 32.5%

Q: What about the viability, T/C [27] of the same compound?
A: 31%

Q: What about the viability, T/C [28] of the same compound?
A: 26%

Q: And the viability, T/C [29]?
A: 23.4%

Q: What about the viability, T/C [30] of the same compound?
A: 13.9%

Q: What about the viability, T/C [31] of the same compound?
A: 29.2%

Q: What about the viability, T/C [32] of the same compound?
A: 28.1%

Q: And the viability, T/C [33]?
A: 31.8%

Q: And the viability, T/C [34]?
A: 27.3%

Q: And the viability, T/C [35]?
A: 21%

Q: And the viability, T/C [36]?
A: 13.4%
